Measured values: US9359406B2, “Vaccine for a therapeutic or a prophylactic treatment of myasthenia gravis” (CuraVac Inc., priority 2006, dated 2016)
No end group written: not given here.

Assays:
[1] = tested on: experimental autoimmune myasthenia gravis (EAMG); assay: Example 3: EAMG induced with purified Torpedo AChR in Lewis rats vaccinated with T-peptide, B-peptide or both; type: in vivo; details: immunized three times
Excerpt: To evaluate whether vaccination with T-peptide together with B-peptide with an hydrocarbon group causes a different effect on experimental autoimmune myasthenia gravis (EAMG) than either B with an hydrocarbon group and T-peptide alone and separately, Lewis rats were immunized three times with keyhole limpet hemacyanin (KLH) or T-peptide or B-peptide with an hydrocarbon group coupled to KLH either alone or in combination. EAMG was then induced with purified Torpedo AChR and disease was monitored.

pathogenic antibodies = assay: Pathogenic antibodies level in rats given B-peptide and T-peptide alone or together; type: in vivo; details: result in words
Protocol: As previously described, the peptide RhCA 67-16 also called herein B-peptide and the peptide RhCA 611-001 also referred herein T-peptide were tested alone on rats.

[2] = tested on: Experimental Autoimmune Myasthenia Gravis (EAMG); details: cited from earlier work

## NH2-Phe-Asn-Ser-Thr-Ile-Ile-Gly-Trp-Ile-Pro-Ala-Lys-Pro-His-Ile-Asn (H-FNSTIIGWIPAKPHIN; also: Trp8 carries at least one 2,4,6-trimethoxybenzyl group) [RhCA 67-16]
[1]
  Average Severity: 1.33 ± 0.55
  EAMG Incidence (%): 55.56%
  Mortality (%): 22.22%
  Severity 0, number of rats: 4
  Severity 1, number of rats: 2
  Severity 2, number of rats: 1
  Severity 4, number of rats: 2
Pathogenic antibodies
  pathogenic antibodies level: significant decrease
[2]; peptide conjugated to KLH, controls 90%
  incidence of the disease in vaccinated animals: 25%
[2]; peptide conjugated to KLH, positive controls 3.5
  clinical severity scoring in animals with disease, average: 1.0

## NH2-Tyr-Phe-Ser-Arg-Ile-Ile-Gln-Lys-Gln-Phe-Gly-His-Val-Asn-Asn-Gly-Lys (H-YFSRIIQKQFGHVNNGK) [RhCA 611-001, peptide complementary to residues 100-116 of the α-chain of the AChR]
[1]
  Average Severity: 1.22 ± 0.55
  EAMG Incidence (%): 55.56%
  Mortality (%): 22.22%
  Severity 0, number of rats: 4
  Severity 1, number of rats: 3
  Severity 4, number of rats: 2
Pathogenic antibodies
  pathogenic antibodies level: significant decrease
[2]; Lewis rats, result in words
  clinical outcome after immunization: marked clinical improvement, lowered mortality and preservation of AChR levels on muscles
